Experimental data: patent US20050019926A1, “Compositions of nucleic acids and cationic aminoglycosides and methods of using and preparing the same” (Aradigm Corporation, priority 2001, published 2005)

How the values were obtained:
plasmid DNA = experiment: agarose gel electrophoresis (gel retardation) of nucleic acid-aminoglycoside complexes; assay type: binding; conditions: plasmid DNA complexed with 5-100 mM aminoglycoside
Experimental: Plasmid DNA and the three different prototype aminoglycosides (neomycin, gentamycin, tobramycin) were diluted to 2× the final desired concentration in separate vials. In formulations with a molar excess of DNA, the diluted aminoglycoside solution was added to the DNA using a pipette with light vortexing. In formulations with a molar excess of aminoglycoside, the DNA was added to the aminoglycoside solution with light vortexing. The formulations were allowed to rest for about 30 minutes before characterization. Complexes of Nucleic Acid-Aminoglycoside were prepared according to the above described method and then analyzed using agarose gel electrophoresis to verify that the nucleic acids were being complexed with the aminoglycosides. Specifically, complexes having varying doses of DNA to three different aminoglycosides were prepared such that plasmid DNA was complexed with 5-100 mM of Neomycin, Tobramycin and Gentamicin.

[1] = intravenous and subcutaneous; patients with normal renal function; Physicians' Desk Reference, 2001; cited from earlier work

Question: With `NC[C@H]1O[C@H](O[C@H]2[C@H](O)[C@@H](O[C@H]3O[C@H](CO)[C@@H](O)[C@H](N)[C@H]3O)[C@H](N)C[C@@H]2N)[C@H](N)C[C@@H]1O` [Tobramycin, tobramycin] as the molecule, how does the “gel retardation (complexation of DNA with aminoglycoside)” value (shortened to “gel retardation”) (plasmid DNA) read?
Answer: dose-dependant increase in gel retardation

Question: For `NCC[C@H](O)C(=O)N[C@@H]1C[C@H](N)[C@@H](O[C@H]2O[C@H](CN)[C@@H](O)[C@H](O)[C@H]2O)[C@H](O)[C@H]1O[C@H]1O[C@H](CO)[C@@H](O)[C@H](N)[C@H]1O` [amikacin], which “high dose delivered without adverse or unacceptable therapeutic effects” value [1] is on record?
Answer: 15 mg/kg of body weight per day

Question: Which “gel retardation” value (plasmid DNA) does the source give for Gentamicin here?
Answer: dose-dependant increase in gel retardation

Question: And the “high dose delivered without adverse or unacceptable therapeutic effects” value [1]?
Answer: 5 mg/kg of body weight per day

Question: Which “gel retardation” value (plasmid DNA) does the source give for neomycin here?
Answer: dose-dependant increase in gel retardation
